Reference: patent US20250163104A1, “MACROCYCLIC IMMUNOMODULATORS” (priority 2021, published 2025)
Where a SMILES comes first, the peptide text is derived from it. Bridges are numbered along the chain shown (N, C = ends). [ ]: non-standard residue; d: D form. The star is where a group is joined. ξ: configuration not given here. Ala(1-amidino-4-piperidyl) = N=C(N)N1CCC(C[C@H](N)C(=O)O)CC1; Phe(4-COOH) = N[C@@H](Cc1ccc(C(=O)O)cc1)C(=O)O; Phe(4-CH2NH2) = NCc1ccc(C[C@H](N)C(=O)O)cc1; Bip = N[C@@H](Cc1ccc(-c2ccccc2)cc1)C(=O)O; Phe(3-Me) = Cc1cccc(C[C@H](N)C(=O)O)c1; NMehArg = CN[C@@H](CCCCNC(=N)N)C(=O)O; Val(3-OH) = CC(C)(O)[C@H](N)C(=O)O; 4Pal = N[C@@H](Cc1ccncc1)C(=O)O; Cha = N[C@@H](CC1CCCCC1)C(=O)O; Cit = NC(=O)NCCC[C@H](N)C(=O)O; Ile(3ξ) = CCC(C)[C@H](N)C(=O)O; Thr(3ξ) = CC(O)[C@H](N)C(=O)O; Dap(Me) = CNC[C@H](N)C(=O)O; Carboxymethyl = O=C(O)C*; Orn = NCCC[C@H](N)C(=O)O; Pra = C#CC[C@H](N)C(=O)O; Dab = NCC[C@H](N)C(=O)O; Dap = NC[C@H](N)C(=O)O; ξA = CC(N)C(=O)O

Molecular target: T1, human PD-1 / PD-L1-Ig binding on Jurkat cell line over-expressing human PD-1 (Jurkat-PD-1) (Homo sapiens, UniProt Q15116)
T1 construct: expressed in transfected cells; host or cells: Jurkat
T1 sequence (Q15116 25-288): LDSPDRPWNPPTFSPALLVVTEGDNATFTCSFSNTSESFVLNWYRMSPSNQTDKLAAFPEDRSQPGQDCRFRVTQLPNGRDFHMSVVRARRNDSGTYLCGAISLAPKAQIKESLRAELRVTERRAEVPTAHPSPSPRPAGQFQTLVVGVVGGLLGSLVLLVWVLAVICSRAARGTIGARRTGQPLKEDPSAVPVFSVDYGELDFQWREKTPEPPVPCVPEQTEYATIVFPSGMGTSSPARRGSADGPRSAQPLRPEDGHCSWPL
Experiment: Jurkat-PD-1 Cell Binding High-Content Screening Assay (CBA)
Assay type: cell-based
Settings: Jurkat-PD-1 cells, PE-labeled PD-L1-Ig 20 nM final; read-out: Jurkat HPD1_PDL1 IC50
How it was run: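 PE-PD-L1-Ig 20 nM final; cells in DMEM/10% FCS; cpd pre-incubation 2 h, 37° C; ligand 1 h; PFA fix + Hoechst 33342; high-content imaging read-out.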

Row | IC50 | SMILES
1 | 8.5 nM | C#CC[C@H](NC(=O)[C@@H](C)NC(=O)[C@@H]1CSCC(=O)N[C@@H](Cc2c[nH]cn2)C(=O)N[C@@H](Cc2ccc(OCC(=O)O)cc2)C(=O)N[C@@H](CC(=O)O)C(=O)N[C@@H](Cc2c[nH]c3ccccc23)C(=O)N[C@@H](C(C)C)C(=O)N[C@@H](Cc2ccc(-c3ccccc3)cc2)C(=O)N[C@@H](C(C)C)C(=O)N[C@@H](CCCN)C(=O)N[C@H](CC(C)C)C(=O)N[C@@H](CCN)C(=O)N[C@@H](CC2CCCCC2)C(=O)N[C@@H](C(C)(C)O)C(=O)N[C@@H](CO)C(=O)N1)C(N)=O [Compound 2327] ({CH2CO}-HY(Carboxymethyl)DWV[Bip]V[Orn][dL][Dab][Cha][Val(3-OH)]SC[dA][Pra]-NH2; thioether N-14)
2 | 632 nM | C#CC[C@H](NC(=O)[C@@H](C)NC(=O)[C@@H]1CSCC(=O)N[C@@H](Cc2ccncc2)C(=O)N[C@@H](Cc2ccc(OCC(=O)O)cc2)C(=O)N[C@@H](CC(=O)O)C(=O)N[C@@H](Cc2cccc(C)c2)C(=O)N[C@@H](Cc2ccc(OCC(=O)O)cc2)C(=O)N[C@@H](Cc2ccc(-c3ccccc3)cc2)C(=O)N[C@@H](Cc2ccc(OCC(=O)O)cc2)C(=O)N[C@@H](CCCN)C(=O)N[C@H](CC(C)C)C(=O)N[C@@H](CCN)C(=O)N[C@@H](CC2CCCCC2)C(=O)N[C@@H](C(C)(C)O)C(=O)N[C@@H](CO)C(=O)N1)C(N)=O [Compound 2328] ({CH2CO}-[4Pal]Y(Carboxymethyl)D[Phe(3-Me)]Y(Carboxymethyl)[Bip]Y(Carboxymethyl)[Orn][dL][Dab][Cha][Val(3-OH)]SC[dA][Pra]-NH2; thioether N-14)
3 | 973 nM | C#CC[C@H](NC(=O)C(C)NC(=O)[C@@H]1CSCC(=O)N[C@@H](Cc2ccncc2)C(=O)N[C@@H](Cc2ccc(C(=O)O)cc2)C(=O)N[C@@H](CC(=O)O)C(=O)N[C@@H](Cc2cccc(C)c2)C(=O)N[C@@H](Cc2ccc(OCC(=O)O)cc2)C(=O)N[C@@H](Cc2ccc(-c3ccccc3)cc2)C(=O)N[C@@H](Cc2ccc(OCC(=O)O)cc2)C(=O)N[C@@H](CCCN)C(=O)N[C@H](CC(C)C)C(=O)N[C@@H](CCN)C(=O)N[C@@H](CC2CCCCC2)C(=O)N[C@@H](C(C)(C)O)C(=O)N[C@@H](CO)C(=O)N1)C(N)=O (stereo partly drawn) [Compound 2329] ({CH2CO}-[4Pal][Phe(4-COOH)]D[Phe(3-Me)]Y(Carboxymethyl)[Bip]Y(Carboxymethyl)[Orn][dL][Dab][Cha][Val(3-OH)]SC[ξA][Pra]-NH2; thioether N-14)
4 | 249 nM | Cc1cccc(C[C@@H]2NC(=O)[C@H](CC(=O)O)NC(=O)[C@H](Cc3ccc(C(=O)O)cc3)NC(=O)[C@H](Cc3ccncc3)NC(=O)CSC[C@@H](C(=O)N[C@@H](CCN)C(N)=O)NC(=O)[C@H](CCC(=O)O)NC(=O)[C@H](C(C)(C)O)NC(=O)[C@H](CC3CCCCC3)NC(=O)[C@H](CCN)NC(=O)[C@@H](CC(C)C)NC(=O)[C@H](CCCN)NC(=O)[C@H](Cc3ccc(OCC(=O)O)cc3)NC(=O)[C@H](Cc3ccc(-c4ccccc4)cc3)NC(=O)[C@H](Cc3ccc(OCC(=O)O)cc3)NC2=O)c1 [Compound 2330] ({CH2CO}-[4Pal][Phe(4-COOH)]D[Phe(3-Me)]Y(Carboxymethyl)[Bip]Y(Carboxymethyl)[Orn][dL][Dab][Cha][Val(3-OH)]EC[Dab]-NH2; thioether N-14)
5 | 10 nM | Cc1cccc(C[C@@H]2NC(=O)[C@H](CC(=O)O)NC(=O)[C@H](Cc3ccc(OCC(=O)O)cc3)NC(=O)[C@H](Cc3ccccc3)NC(=O)CSC[C@@H](C(=O)N[C@@H](C)C(N)=O)NC(=O)[C@H](C(C)O)NC(=O)[C@H](C(C)C)NC(=O)[C@H](CC3CCCCC3)NC(=O)[C@H](CN)NC(=O)[C@@H](CC(C)C)NC(=O)[C@H](CCCN)NC(=O)[C@H](CCCNC(N)=O)NC(=O)[C@H](Cc3ccc(-c4ccccc4)cc3)NC(=O)[C@H](C(C)C)NC2=O)c1 (stereo partly drawn) [Compound 2500] ({CH2CO}-FY(Carboxymethyl)D[Phe(3-Me)]V[Bip][Cit][Orn][dL][Dap][Cha]V[Thr(3ξ)]CA-NH2; thioether N-14)
6 | 17.3 nM | CC(=O)NCCCC[C@@H]1NC(=O)[C@H](CCCNC(N)=O)NC(=O)[C@H](Cc2ccc(-c3ccccc3)cc2)NC(=O)[C@H](C(C)C)NC(=O)[C@H](Cc2cccc(C)c2)NC(=O)[C@H](CC(N)=O)NC(=O)[C@H](Cc2ccc(OCC(=O)O)cc2)NC(=O)[C@H](Cc2ccccc2)NC(=O)CSC[C@@H](C(=O)N[C@@H](C)C(N)=O)NC(=O)[C@H](CO)NC(=O)[C@H](C(C)C)NC(=O)[C@H](CC2CCCCC2)NC(=O)[C@H](CC(N)=O)NC(=O)[C@@H](CC(C)C)NC1=O [Compound 2501] ({CH2CO}-FY(Carboxymethyl)N[Phe(3-Me)]V[Bip][Cit]K(Ac)[dL]N[Cha]VSCA-NH2; thioether N-14)
7 | 50.8 nM | CC(=O)NCCCC[C@@H]1NC(=O)[C@H](CCCNC(N)=O)NC(=O)[C@H](Cc2ccc(-c3ccccc3)cc2)NC(=O)[C@H](CC(C)C)NC(=O)[C@H](Cc2c[nH]c3ccccc23)NC(=O)[C@H](CC(N)=O)NC(=O)[C@H](Cc2ccc(OCC(=O)O)cc2)NC(=O)[C@H](Cc2ccccc2)NC(=O)CSC[C@@H](C(=O)N[C@@H](C)C(N)=O)NC(=O)[C@H](CO)NC(=O)[C@H](C(C)C)NC(=O)[C@H](CC2CCCCC2)NC(=O)[C@H](CC(N)=O)NC(=O)[C@@H](CC(C)C)NC1=O [Compound 2502] ({CH2CO}-FY(Carboxymethyl)NWL[Bip][Cit]K(Ac)[dL]N[Cha]VSCA-NH2; thioether N-14)
8 | 33 nM | CC(C)C[C@@H]1NC(=O)[C@H](Cc2c[nH]c3ccccc23)NC(=O)[C@H](CC(=O)O)NC(=O)[C@H](Cc2ccc(CN)cc2)NC(=O)[C@H](Cc2ccccc2)NC(=O)CSC[C@@H](C(=O)N[C@@H](C)C(N)=O)NC(=O)[C@H](CO)NC(=O)[C@H](C(C)C)NC(=O)[C@H](CC2CCCCC2)NC(=O)[C@H](CN)NC(=O)[C@@H](CC(C)C)NC(=O)[C@H](CCCN)NC(=O)[C@H](CCCNC(N)=O)NC(=O)[C@H](Cc2ccc(-c3ccccc3)cc2)NC1=O [Compound 2503] ({CH2CO}-F[Phe(4-CH2NH2)]DWL[Bip][Cit][Orn][dL][Dap][Cha]VSCA-NH2; thioether N-14)
9 | 15.9 nM | CC(C)C[C@H]1NC(=O)[C@H](CCCN)NC(=O)[C@H](CCCNC(N)=O)NC(=O)[C@H](Cc2ccc(-c3ccccc3)cc2)NC(=O)[C@H](C(C)C)NC(=O)[C@H](Cc2c[nH]c3ccccc23)NC(=O)[C@H](CC(=O)O)NC(=O)[C@H](Cc2ccc(OCC(=O)O)cc2)NC(=O)[C@H](CC2CCN(C(=N)N)CC2)NC(=O)CSC[C@@H](C(=O)N[C@@H](C)C(N)=O)NC(=O)[C@H](CO)NC(=O)[C@H](C(C)C)NC(=O)[C@H](CC2CCCCC2)NC(=O)[C@H](CN)NC1=O [Compound 2504] ({CH2CO}-[Ala(1-amidino-4-piperidyl)]Y(Carboxymethyl)DWV[Bip][Cit][Orn][dL][Dap][Cha]VSCA-NH2; thioether N-14)
10 | 70.6 nM | CCC(C)[C@@H]1NC(=O)[C@H](Cc2ccc(-c3ccccc3)cc2)NC(=O)[C@H](C(C)C)NC(=O)[C@H](Cc2c[nH]c3ccccc23)NC(=O)[C@H](CC(=O)O)NC(=O)[C@H](Cc2ccc(O)cc2)NC(=O)[C@H](Cc2ccncc2)NC(=O)CSC[C@@H](C(=O)N[C@@H](C)C(N)=O)NC(=O)[C@H](C(C)O)NC(=O)[C@H](C(C)C)NC(=O)[C@H](CC2CCCCC2)NC(=O)[C@H](CC(N)=O)NC(=O)[C@@H](CC(C)C)NC(=O)[C@H](Cc2ccc(CN)cc2)NC1=O (stereo partly drawn) [Compound 2506] ({CH2CO}-[4Pal]YDWV[Bip][Ile(3ξ)][Phe(4-CH2NH2)][dL]N[Cha]V[Thr(3ξ)]CA-NH2; thioether N-14)
11 | 20.8 nM | CCC(C)[C@@H]1NC(=O)[C@H](Cc2ccc(-c3ccccc3)cc2)NC(=O)[C@H](C(C)C)NC(=O)[C@H](Cc2c[nH]c3ccccc23)NC(=O)[C@H](CC(=O)O)NC(=O)[C@H](Cc2ccc(OCC(=O)O)cc2)NC(=O)[C@H](CCN)NC(=O)CSC[C@@H](C(=O)N[C@@H](C)C(N)=O)NC(=O)[C@H](C(C)O)NC(=O)[C@H](C(C)C)NC(=O)[C@H](CC(C)C)NC(=O)[C@H](CCN)NC(=O)[C@@H](CC(C)C)NC(=O)[C@H](CCCN)NC1=O (stereo partly drawn) [Compound 2507] ({CH2CO}-[Dab]Y(Carboxymethyl)DWV[Bip][Ile(3ξ)][Orn][dL][Dab]LV[Thr(3ξ)]CA-NH2; thioether N-14)
12 | 5.1 nM | CC(C)C[C@H]1NC(=O)[C@H](CCCN)NC(=O)[C@H](C(C)C)NC(=O)[C@H](Cc2ccc(-c3ccccc3)cc2)NC(=O)[C@H](C(C)C)NC(=O)[C@H](Cc2c[nH]c3ccccc23)NC(=O)[C@H](CC(=O)O)NC(=O)[C@H](Cc2ccc(OCC(=O)O)cc2)NC(=O)[C@H](C(C)O)NC(=O)CSC[C@@H](C(=O)N[C@@H](C)C(N)=O)NC(=O)[C@H](C(C)O)NC(=O)[C@H](C(C)C)NC(=O)C(CC2CCCCC2)NC(=O)[C@H](CCN)NC1=O (some centres unmarked) [Compound 2511]
13 | 10.8 nM | CCC(C)[C@@H]1NC(=O)[C@H](Cc2ccc(-c3ccccc3)cc2)NC(=O)[C@H](C(C)C)NC(=O)[C@H](Cc2c[nH]c3ccccc23)NC(=O)[C@H](CC(=O)O)NC(=O)[C@H](Cc2ccc(OCC(=O)O)cc2)NC(=O)[C@H](CNC)NC(=O)CSC[C@@H](C(=O)N[C@@H](C)C(N)=O)NC(=O)[C@H](C(C)O)NC(=O)[C@H](C(C)C)NC(=O)[C@H](CC(C)C)NC(=O)[C@H](CCN)NC(=O)[C@@H](CC(C)C)NC(=O)[C@H](CCCN)NC1=O (stereo partly drawn) [Compound 2512] ({CH2CO}-[Dap(Me)]Y(Carboxymethyl)DWV[Bip][Ile(3ξ)][Orn][dL][Dab]LV[Thr(3ξ)]CA-NH2; thioether N-14)
14 | 18 nM | CC(C)C[C@H]1NC(=O)[C@H](CCCN)NC(=O)[C@H](C(C)C)NC(=O)[C@H](Cc2ccc(-c3ccccc3)cc2)NC(=O)[C@H](C(C)C)NC(=O)[C@H](Cc2c[nH]c3ccccc23)NC(=O)[C@H](CC(=O)O)NC(=O)[C@H](Cc2ccc(OCC(=O)O)cc2)NC(=O)[C@H](CCCCNC(=N)N)N(C)C(=O)CSC[C@@H](C(=O)N[C@@H](C)C(N)=O)NC(=O)[C@H](CO)NC(=O)[C@H](C(C)C)NC(=O)[C@H](CC2CCCCC2)NC(=O)[C@H](CCN)NC1=O [Compound 2513] ({CH2CO}-[NMehArg]Y(Carboxymethyl)DWV[Bip]V[Orn][dL][Dab][Cha]VSCA-NH2; thioether N-14)
